{"source": "patent US5162361A", "about": "“Method of treating diseases associated with elevated levels of interleukin 1” (priority 1990, dated 1992)", "key": {"IL-1": {"test_system": "IL-1", "test": "IL-1 release from alveolar macrophages (thymocyte co-stimulation bioassay)", "format": "cell-based, rat", "details": "24 h after LPS (5 ng/ml), FIG. 1a", "protocol": "Pulmonary alveolar macrophages were collected by lavaging the lungs as previously described (D. B. Warheit et al., Am. Rev. Resp. Dis. 134, 128 (1986)). Once washed and resuspended, the macrophages were allowed to adhere to plastic plates in serum free RPMI 1640 containing 25 mM Hepes, 2 mM L-glutamine, 50 μg/ml gentamicin and streptomycin (media). Following adherence for 1 hour at 37° C. in 5% CO2, the plates were washed once with warm media to remove nonadherent cells, cells were resuspended in media with 10% FCS and treated with or without pentamidine at the indicated concentration and LPS (5 ng/ml) for 24 hours). IL-1 activity was assayed using a thymocyte co-stimulation assay (S. B. Mizel in Methods in Macrophage Biology, Editors, Herscowitz and Holden (1981)). Single cell thymocyte suspension from B6C3F1 mice (female, 5-9 weeks old) at a concentration of 2.0×10^7 /ml in media containing 10% FCS, and 2.5×10^-5 M 2-β mercaptoethanol were added in 50 μl aliquots to each well of flat bottom microtiter plates along with 50 μl of PHA at 2.5 μg/ml. Serial dilution of supernatants or cells were made in media with 10% FCS and added in 100 μl aliquots. IL-1 activity was measured by quantifying the uptake of 3Hthymidine during the last 6 hours of a 72 hour culture at 37° C. and 5% CO2. Cells were harvested onto glass fiber filters and filter associated radioactivity counted in a scintillation counter.\nIn vitro studies were performed by taking alveolar macrophages from normal healthy rat lungs and culturing them in the presence of an imidazoline with the inducer lipopolysaccharide for 24 hours. The standard bioassay for IL-1 was performed (see above)."}, "Ia antigen": {"test_system": "Ia antigen", "test": "Ia antigen expression on alveolar macrophages (flow cytometry)", "format": "cell-based, rat", "protocol": "^a Ia antigen expression - Alveolar macrophages were diluted to 1×10^6 cells/ml in RPMI (supplemented as above). Three mls. (3×10^6 cells) were added to sterile teflon vials and treated with pentamidine or dexamethasone for 4 hours at 37° C., 5% CO2, followed by the addition of rat γ IFN at 100 U/ml. Cells were incubated for 18 hours, pelleted, counted and adjusted to 1×10^7 cells/ml in ice cold standard buffer (HBSS, 0.1% Na azide, 1% BSA).\nAliquots of cells (50 μl in quadruplicate) from the various treatment groups were plated to a 96 well round bottom plate (Linbro) and incubated for 45 minutes on ice with 50 μl aliquots of one of the following: monoclonal anti-rat OXS (Sera-lab), monoclonal anti-mouse OX6 (Sera-lab), both at 0.5 μg/5×10^5 cells, or HBSS (control). Cells were washed 3× with standard buffer and incubated for 45 minutes on ice, in the dark, with 50 μl of phycoerythrin-labeled goat anti-mouse IGGI (Fisher Biotech) at 1 μg/5×10^5 cells. Cells were washed 3× with standard buffer, resuspended in 0.4 ml of standard buffer and analyzed via flow cytometry."}, "Female B6C3F1 mice": {"test_system": "Female B6C3F1 mice", "test": "Endotoxemia: hypothermia and survival after LPS", "format": "in vivo", "protocol": "Female B6C3F1 mice weighing approximately 24 g were dosed with pentamidine (15 mg/kg.; i.v.) at both 24 hours and 1 hour prior to LPS administration (50 mg/kg; i.p.). Temperature response indices (TRI) were determined for the period between time zero and +12 hours in groups of 5 mice. […] Animals used for body temperature measurements were treated identically and on the same day as those animals for which survival was measured, although the survival of these animals is not included in the Table below. Survival data shown in Table 3 is following 24 hours of observation."}, "IL-1α [1]": {"test_system": "IL-1α", "test": "Western blot analysis of cell associated IL-1α", "format": "cell-based, rat", "details": "10 μM pentamidine, LPS, 24 h, FIG. 3", "protocol": "To determine the effect of pentamidine on cellular stores of IL-1, intracellular levels of IL-1 were quantitated by incubating cells with and without 10 μM pentamidine and LPS for 24 hours. At the end of this incubation period, the cells were washed, lysed and the total cellular protein was collected for Western blot analysis. […] This is in agreement with the generally accepted existence of a precursor form of IL-1 with a molecular weight in the range of 31-33 kD (J. Giri et al., J. Immunol. 134, 343 (1985)).\nCells (4×10^6 cells) were oultured with pentamidine (10μM) or dexamethasone (1μM) in media with 10% fetal calf serum (FCS) in the presence or absence of LPS (1 μg/ml) for 24 hours. The cells were washed twice in HBSS and then scraped in homogenizing buffer (HBSS containing 0.1 mM EGTA, 1 mM pmsf, 10 μg/ml leupeptin, 1 KIU/ml aprotinin, pH 7.4). The cell suspension was left on ice for 10 minutes at which time the swollen cells were disrupted by sonication. The nuclei and undisrupted cells were pelleted by centrifugation at 800 rpm for 10 minutes and were discarded. The supernatant was centrifugated at 39,000 rpm for 1 hour at 4° C. After centrifugation, the supernatants containing cytosolic components of the cell was carefully removed and was used as the cytosol fraction. […] Molecular weight references were determined by running one lane with pre-stained molecular weight standards."}, "IL-1α [2]": {"test_system": "IL-1α", "test": "Western blot analysis of secreted protein (IL-1α)", "format": "cell-based, rat", "details": "LPS, FIG. 1b"}}, "note": "Entries after “also recorded” stand apart in the source; their conditions may differ.", "data": [{"smiles": "N=C(N)c1ccc(OCCCCCOc2ccc(C(=N)N)cc2)cc1", "note": "[Pentamidine, 1,5-bis(4-amidinophenoxy)pentane]", "values": [{"measurement": "IL-1 release", "setting": "IL-1", "result": "decreased in a concentration dependant manner; also recorded: decreased in a concentration dependent manner"}, {"measurement": "Ia Antigen Expression (MFI)", "setting": "Ia antigen; Pentamidine 10^-5 M (control 459)", "result": 464, "unit": "MFI"}, {"measurement": "Mean concentration of Ia molecules on Ia positive cells", "setting": "Ia antigen; result in words", "result": "nor did it influence the mean concentration of Ia molecules on Ia positive cells"}, {"measurement": "Temperature response index (TRI)", "setting": "Female B6C3F1 mice; 15 mg/kg i.v. 24 h and 1 h prior to LPS 50 mg/kg i.p. (LPS alone -13.3), P < 0.01", "result": "-8.3 Δ°C"}, {"measurement": "Survival", "setting": "Female B6C3F1 mice; 15 mg/kg i.v. + LPS, 24 hours of observation (LPS alone 0/10), P < 0.01", "result": "10/10"}, {"measurement": "Mean rectal temperature at 12 hours (Tr12hr)", "setting": "Female B6C3F1 mice; 15 mg/kg i.v. + LPS, ± SE (LPS alone 25.3 ± 0.5), P < 0.01", "result": "29.0 ± 2.2", "unit": "°C"}, {"measurement": "Mean rectal temperature at time zero (Tr0)", "setting": "Female B6C3F1 mice; 15 mg/kg i.v. + LPS, ± SE (LPS alone 38.6 ± 0.4)", "result": "37.3 ± 0.4", "unit": "°C"}, {"measurement": "Temperature response index (TRI)", "setting": "Female B6C3F1 mice; 15 mg/kg i.v. at 24 h and 1 h, no LPS (vehicle -1.3)", "result": "-2.4 Δ°C"}, {"measurement": "Survival", "setting": "Female B6C3F1 mice; 15 mg/kg i.v., no LPS, 24 hours of observation (vehicle 10/10)", "result": "9/9"}, {"measurement": "Mean rectal temperature at 12 hours (Tr12hr)", "setting": "Female B6C3F1 mice; 15 mg/kg i.v., no LPS, ± SE (vehicle 36.9 ± 1.4)", "result": "35.0 ± 2.9", "unit": "°C"}, {"measurement": "Mean rectal temperature at time zero (Tr0)", "setting": "Female B6C3F1 mice; 15 mg/kg i.v., no LPS, ± SE (vehicle 38.2 ± 0.1)", "result": "37.4 ± 0.6", "unit": "°C"}, {"measurement": "Cell associated IL-1α (Western blot)", "setting": "IL-1α [1]", "result": "allows proper translation of the protein; also recorded: antiserum to murine IL-1α bound to a protein that migrated to approximately 31 kD"}, {"measurement": "Secreted IL-1 by Western blot", "setting": "IL-1α [2]", "result": "nearly complete block in the release of the intracellular IL-1; also recorded: lack of a lipopolysaccharide inducible IL-1 band"}]}]}
